Source: article PMC5283680 (ACS chemical biology, 2016)
≈ marks a conversion by molar mass, not a printed value. Where two headings read alike, the source gives them in different places. Positions of bridges follow the written chain, without caps; N, C: chain ends. Non-standard residues stand in square brackets, D forms with d. Residues, ends and D or L forms follow the SMILES beside them. d(aIle) = CC[C@H](C)[C@@H](N)C(=O)O; dNMeF = CN[C@H](Cc1ccccc1)C(=O)O

Columns and labels:
[1] = test system: Staphylococcus epidermidis ATCC 14990; type: cell-based
[2] = test system: Streptococcus salivarius ATCC 13419; type: cell-based
[3] = test system: Enterococcus durans ATCC 6056; type: cell-based
[4] = test system: Bacillus subtilis ATCC 6051; experiment: microbe, parasite or virus in culture; type: cell-based
[5] = test system: Escherichia coli ATCC 10798; type: cell-based
[6] = test system: four gram-positive bacteria; experiment: MIC assays, summary over the four gram-positive bacteria; type: cell-based; settings: for MIC against the gram-positive bacteria studied: four gram-positive bacteria of Table 1
gram-positive bacteria = settings: MIC assays; cited from earlier work
various Streptococcus = settings: cited from earlier work
E. coli = settings: cited from earlier work
[7] = Staphylococcus epidermidis ATCC 14990, homologues as TFA salts
[8] = Streptococcus salivarius ATCC 13419, homologues as TFA salts
[9] = Enterococcus durans ATCC 6056, homologues as TFA salts
[10] = Bacillus subtilis ATCC 6051, homologues as TFA salts

Row | Molecule | MIC ([1]; ATCC 14990) [µg/mL] | MIC ([2]; ATCC 13419) [µg/mL] | MIC ([3]; ATCC 6056) [µg/mL] | MIC ([4]; ATCC 6051) [µg/mL] | MIC [5] [µg/mL] | MIC [1, 7] [µg/mL] | MIC [2, 8] [µg/mL] | MIC [3, 9] [µg/mL] | MIC [4, 10] [µg/mL] | MIC against the gram-positive bacteria studied [6] [µg/mL] | further results
1 | CC[C@H](C)[C@H](NC(=O)[C@@H](Cc1ccccc1)NC)C(=O)N[C@@H](CO)C(=O)N[C@H](CCC(N)=O)C(=O)N[C@@H](C(=O)N[C@H](C(=O)N[C@@H](CO)C(=O)N[C@H]1C(=O)N[C@@H](C)C(=O)N[C@@H](CCCCN)C(=O)N[C@@H]([C@@H](C)CC)C(=O)O[C@H]1C)[C@@H](C)CC)[C@@H](C)CC [Lys10-teixobactin] (H-[dNMeF]IS[dQ][d(aIle)]IS[dT]AKI; ester 8-C (inferred); N-terminus assumed) | 0.25 (≈ 0.206 µM) | 0.5 (≈ 0.411 µM) | 1 (≈ 0.822 µM) | 0.5 (≈ 0.411 µM) | >32 |  |  |  |  |  | MIC values, times lower than Arg10-teixobactin ([6]; gram-positive bacteria, relative to Arg10-teixobactin): 2–4 times
2 | seco-Arg10-teixobactin |  |  |  |  |  | >32 | >32 | >32 | >32 | > 32 | 
3 | CC[C@H](C)[C@H](NC(=O)[C@@H](Cc1ccccc1)NC)C(=O)N[C@@H](CO)C(=O)N[C@H](CCC(N)=O)C(=O)N[C@@H](C(=O)N[C@H](C(=O)N[C@@H](CO)C(=O)N[C@H]1C(=O)N[C@@H](C)C(=O)N[C@@H](CCCNC(=N)N)C(=O)N[C@@H]([C@@H](C)CC)C(=O)O[C@H]1C)[C@@H](C)CC)[C@@H](C)CC [Arg10-teixobactin] | 1 (≈ 0.804 µM) | 1 (≈ 0.804 µM) | 4 (≈ 3.21 µM) | 2 (≈ 1.61 µM) | >32 |  |  |  |  | 1 to 4 | activity relative to teixobactin ([6]; comparison of own MIC with original published values in related bacteria): about an order of magnitude less active; activity relative to teixobactin (gram-positive bacteria): about an order of magnitude less active
4 | teixobactin |  |  |  |  |  |  |  |  |  |  | MIC (various Streptococcus): 0.02 to 0.15 µg/mL; MIC (E. coli): 25 µg/mL
5 | CN[C@H](CC(C)C)C(=O)N[C@H]1C(=O)N[C@@H](CC(N)=O)C(=O)N[C@H]2C(=O)N[C@H]3C(=O)N[C@H](C(=O)N[C@H](C(=O)O)c4cc(O)cc(O)c4-c4cc3ccc4O)[C@H](O)c3ccc(c(Cl)c3)Oc3cc2cc(c3O[C@@H]2O[C@H](CO)[C@@H](O)[C@H](O)[C@H]2O[C@H]2C[C@](C)(N)[C@H](O)[C@H](C)O2)Oc2ccc(cc2Cl)[C@H]1O [vancomycin, reference compound] |  |  |  |  |  |  |  |  |  |  | MIC ([4]; Bacillus subtilis, ATCC6051): 1 µg/mL (≈ 0.69 µM)
6 | ent-Arg10-teixobactin |  |  |  |  |  | 2 | 1 | 4 | 2 |  | activity relative to Arg10-teixobactin ([6]; gram-positive bacteria, MIC): comparable activity
